Experimental data: article PMC7710018, “Restoration of motor learning in a mouse model of Rett syndrome following long-term treatment with a novel small-molecule activator of TrkB” (Disease Models & Mechanisms, 2020)
Where two headings read alike, the source gives them in different places.

Columns and labels:
Experiment in all cases: Cerep ExpresSProfile radioligand binding
D1 (h) = biological target: T1, D1 (h) (Homo sapiens, UniProt P21728); conditions: 10 micromolar, antagonist radioligand
T1 construct: purchased Cerep (ExpresSProfile)
Experimental: (§1) To evaluate the relative binding specificity of LM22A-4 ([Massa et al., 2010]) and PTX-BD4-3, binding to a broad range of 55 pharmacologically relevant receptors, including numerous neurotransmitter and G-protein coupled receptors was assessed using standard radioligand competition binding assays (ExpressSProfile) performed by Cerep, Inc. (Seattle, WA, USA). In addition, ADME-Tox analysis was performed by Cerep, Inc. All experimental conditions are described on the Cerep website (www.cerep.fr).
(§2) Ligand % Inhibition of Control Specific […]
(§3) 48 Ca2+ channel (L, verapamil site) 0 ‐1.3 ‐0.7
(§4) (phenylalkylamine) (antagonist radioligand) […]
(§5) 51 Na+ channel (site 2) (antagonist radioligand) 0.6 11.7 6.1
(§6) 52 Cl‐ channel (GABA‐gated) (antagonist 2.7 ‐5.3 ‐1.3 […]
(§7) Table S1. In vitro binding assays. An ExpresSProfile screen of PTX-BD4-3 binding to a panel of pharmacologically relevant receptors was conducted by Cerep, Inc.
(§8) (Eurofins Panlabs, MO). The results are expressed as percent inhibition of control specific binding obtained in the presence of 10 micromolar PTX-BD4-3. In this assay, values below 50% indicate no specific binding of PTX-BD4-3. The assay was negative for PTX-BD4-3 binding to all of the 55 receptors in the screen.
(§9) (also on this page, place not known: 2B 5‐HT 3 5‐HT 5a 5‐HT 6 5‐HT 7 (agonis t VPAC 1 V 1 Ca 2+ K V SK Ca Na + Cl ‐ 5‐HT Disease Models & Mechanisms: doi:10.1242/dmm.044685: Supplementary information Disease Models & Mechanisms • Supplementary information)

GABA (non-selective) = conditions: 10 micromolar; agonist radioligand
Experimental: as §1, §2, §3, §4, §5, §6, §7, §8, §9

A2A (h) = biological target: T2, A2A (h) (Homo sapiens, UniProt P29274); conditions: 10 micromolar, agonist radioligand
T2 construct: purchased Cerep (ExpresSProfile)
Experimental: as §1, §2, §3, §4, §5, §6, §7, §8, §9

H1 (h) = biological target: T3, H1 (h) (Homo sapiens, UniProt P35367); conditions: 10 micromolar, antagonist radioligand
T3 construct: purchased Cerep (ExpresSProfile)
Experimental: as §1, §2, §3, §4, §5, §6, §7, §8, §9

5-HT1A (h) = biological target: T4, 5-HT1A (h) (Homo sapiens, UniProt P08908); conditions: 10 micromolar, agonist radioligand
T4 construct: purchased Cerep (ExpresSProfile)
Experimental: as §1, §2, §3, §4, §5, §6, §7, §8, §9

A1 (h) = biological target: T5, A1 (h) (Homo sapiens, UniProt P30542); conditions: 10 micromolar, agonist radioligand
T5 construct: purchased Cerep (ExpresSProfile)
T5 sequence (P30542 1-326): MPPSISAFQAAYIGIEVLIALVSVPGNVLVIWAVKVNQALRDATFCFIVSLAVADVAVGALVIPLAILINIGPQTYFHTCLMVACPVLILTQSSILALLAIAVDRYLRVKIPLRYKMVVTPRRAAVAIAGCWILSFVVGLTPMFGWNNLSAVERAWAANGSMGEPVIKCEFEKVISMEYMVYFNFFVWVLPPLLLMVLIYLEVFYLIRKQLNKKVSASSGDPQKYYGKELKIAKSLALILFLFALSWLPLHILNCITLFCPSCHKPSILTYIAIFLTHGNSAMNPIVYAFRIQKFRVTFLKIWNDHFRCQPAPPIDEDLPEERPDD
Experimental: as §1, §2, §3, §4, §5, §6, §7, §8, §9

μ (MOP) (h) = biological target: T6, μ (MOP) (h) (Homo sapiens, UniProt P35372); conditions: 10 micromolar; agonist radioligand; read-out: % Inhibition of Control Specific Binding 1st
T6 construct: purchased Cerep (ExpresSProfile)
Experimental: as §1, §2, §3, §4, §5, §6, §7, §8, §9

5-HT2A (h) = biological target: T7, 5-HT2A (h) (Homo sapiens, UniProt P28223); conditions: 10 micromolar, antagonist radioligand
T7 construct: purchased Cerep (ExpresSProfile)
Experimental: as §1, §2, §3, §4, §5, §6, §7, §8, §9

GAL2 (h) = biological target: T8, GAL2 (h) (Homo sapiens, UniProt O43603); conditions: 10 micromolar; agonist radioligand; read-out: % Inhibition of Control Specific Binding 2nd
T8 construct: purchased Cerep (ExpresSProfile)
Experimental: as §1, §2, §3, §4, §5, §6, §7, §8, §9

BZD (central) = conditions: 10 micromolar; agonist radioligand
Experimental: as §1, §2, §3, §4, §5, §6, §7, §8, §9

B2 (h) = biological target: T9, B2 (h) (Homo sapiens, UniProt P30411); conditions: 10 micromolar, agonist radioligand
T9 construct: purchased Cerep (ExpresSProfile)
T9 sequence (P30411 1-391): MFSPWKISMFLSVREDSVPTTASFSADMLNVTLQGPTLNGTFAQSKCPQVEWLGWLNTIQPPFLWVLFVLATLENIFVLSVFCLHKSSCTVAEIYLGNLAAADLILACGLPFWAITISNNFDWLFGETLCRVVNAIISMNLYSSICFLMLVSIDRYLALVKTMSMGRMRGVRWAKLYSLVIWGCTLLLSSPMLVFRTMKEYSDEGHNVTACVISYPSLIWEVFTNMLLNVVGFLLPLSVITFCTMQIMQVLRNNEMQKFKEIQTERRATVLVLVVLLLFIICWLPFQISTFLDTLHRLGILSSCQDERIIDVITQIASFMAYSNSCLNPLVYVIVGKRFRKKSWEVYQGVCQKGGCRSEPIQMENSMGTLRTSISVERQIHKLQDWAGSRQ
Experimental: as §1, §2, §3, §4, §5, §6, §7, §8, §9

EP4 (h) = biological target: T10, EP4 (h) (Homo sapiens, UniProt P35408); conditions: 10 micromolar, agonist radioligand
T10 construct: purchased Cerep (ExpresSProfile)
Experimental: as §1, §2, §3, §4, §5, §6, §7, §8, §9

D2S (h) = biological target: T11, D2S (h) (Homo sapiens, UniProt P14416); conditions: 10 micromolar; antagonist radioligand; read-out: % Inhibition of Control Specific Binding 2nd
T11 construct: purchased Cerep (ExpresSProfile)
Experimental: as §1, §2, §3, §4, §5, §6, §7, §8, §9

[1] = read-out: % Inhibition of Control Specific Binding 1st
[2] = read-out: % Inhibition of Control Specific Binding 2nd
[3] = read-out: % Inhibition of Control Specific Binding Mean

T1 sequence (P21728 whole entry): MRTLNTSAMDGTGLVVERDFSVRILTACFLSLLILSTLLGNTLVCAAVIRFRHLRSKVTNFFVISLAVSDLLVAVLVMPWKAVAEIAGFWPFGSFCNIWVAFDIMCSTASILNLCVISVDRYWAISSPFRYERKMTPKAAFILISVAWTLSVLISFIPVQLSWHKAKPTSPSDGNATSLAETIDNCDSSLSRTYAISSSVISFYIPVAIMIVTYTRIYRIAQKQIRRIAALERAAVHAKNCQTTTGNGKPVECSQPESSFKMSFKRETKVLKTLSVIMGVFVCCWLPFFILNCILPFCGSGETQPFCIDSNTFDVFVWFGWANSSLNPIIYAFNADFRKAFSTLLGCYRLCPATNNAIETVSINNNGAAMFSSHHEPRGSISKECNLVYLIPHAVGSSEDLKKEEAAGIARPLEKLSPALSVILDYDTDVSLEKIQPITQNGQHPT
T2 sequence (P29274 whole entry): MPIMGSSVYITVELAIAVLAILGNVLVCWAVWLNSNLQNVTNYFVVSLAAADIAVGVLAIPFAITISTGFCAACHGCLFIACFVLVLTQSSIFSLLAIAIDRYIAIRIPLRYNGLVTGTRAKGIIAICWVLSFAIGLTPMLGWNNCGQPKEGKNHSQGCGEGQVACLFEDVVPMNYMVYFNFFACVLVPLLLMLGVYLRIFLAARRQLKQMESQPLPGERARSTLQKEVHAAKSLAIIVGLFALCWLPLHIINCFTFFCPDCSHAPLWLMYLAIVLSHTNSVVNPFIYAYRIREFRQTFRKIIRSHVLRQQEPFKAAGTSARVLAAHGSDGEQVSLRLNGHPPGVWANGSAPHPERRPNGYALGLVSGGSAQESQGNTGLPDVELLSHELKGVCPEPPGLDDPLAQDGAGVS
T3 sequence (P35367 whole entry): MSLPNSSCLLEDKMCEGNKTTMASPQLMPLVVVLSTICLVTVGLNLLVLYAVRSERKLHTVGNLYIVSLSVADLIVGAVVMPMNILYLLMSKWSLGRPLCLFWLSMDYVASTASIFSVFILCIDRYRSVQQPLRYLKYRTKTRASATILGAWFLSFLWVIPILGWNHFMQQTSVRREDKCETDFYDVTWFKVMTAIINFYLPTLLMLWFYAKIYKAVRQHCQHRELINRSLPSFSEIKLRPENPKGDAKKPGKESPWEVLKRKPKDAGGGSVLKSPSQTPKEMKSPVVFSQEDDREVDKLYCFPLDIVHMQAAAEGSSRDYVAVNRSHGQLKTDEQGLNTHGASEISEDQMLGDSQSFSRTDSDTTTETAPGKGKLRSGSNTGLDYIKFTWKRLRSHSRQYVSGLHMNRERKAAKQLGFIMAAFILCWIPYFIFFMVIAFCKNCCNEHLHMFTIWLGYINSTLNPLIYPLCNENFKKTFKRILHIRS
T10 sequence (P35408 whole entry): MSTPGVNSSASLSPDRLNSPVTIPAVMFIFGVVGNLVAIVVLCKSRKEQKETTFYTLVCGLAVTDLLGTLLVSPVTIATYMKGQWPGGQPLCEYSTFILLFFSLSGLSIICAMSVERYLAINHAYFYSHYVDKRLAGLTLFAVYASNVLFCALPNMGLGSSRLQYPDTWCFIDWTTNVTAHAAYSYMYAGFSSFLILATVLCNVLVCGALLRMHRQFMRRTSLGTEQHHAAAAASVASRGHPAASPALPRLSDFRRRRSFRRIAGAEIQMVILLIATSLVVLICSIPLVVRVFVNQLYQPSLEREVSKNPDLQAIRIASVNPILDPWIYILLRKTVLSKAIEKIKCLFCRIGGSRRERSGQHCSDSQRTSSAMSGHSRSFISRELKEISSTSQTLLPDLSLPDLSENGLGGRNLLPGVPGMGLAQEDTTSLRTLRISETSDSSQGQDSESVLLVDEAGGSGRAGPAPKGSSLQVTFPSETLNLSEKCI
T7 sequence (P28223 whole entry): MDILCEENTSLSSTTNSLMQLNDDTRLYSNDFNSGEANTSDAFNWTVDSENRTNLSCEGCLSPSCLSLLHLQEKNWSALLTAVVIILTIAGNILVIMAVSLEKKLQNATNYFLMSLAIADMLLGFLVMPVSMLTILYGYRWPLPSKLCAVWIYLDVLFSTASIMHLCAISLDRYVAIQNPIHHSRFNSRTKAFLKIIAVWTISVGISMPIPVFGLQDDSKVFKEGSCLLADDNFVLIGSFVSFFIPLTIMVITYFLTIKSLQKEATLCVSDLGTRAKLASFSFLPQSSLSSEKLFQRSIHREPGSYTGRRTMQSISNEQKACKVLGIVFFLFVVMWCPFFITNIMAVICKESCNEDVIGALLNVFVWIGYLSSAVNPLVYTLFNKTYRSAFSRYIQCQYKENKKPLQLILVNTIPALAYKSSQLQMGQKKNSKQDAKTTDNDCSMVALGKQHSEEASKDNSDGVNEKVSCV
T4 sequence (P08908 whole entry): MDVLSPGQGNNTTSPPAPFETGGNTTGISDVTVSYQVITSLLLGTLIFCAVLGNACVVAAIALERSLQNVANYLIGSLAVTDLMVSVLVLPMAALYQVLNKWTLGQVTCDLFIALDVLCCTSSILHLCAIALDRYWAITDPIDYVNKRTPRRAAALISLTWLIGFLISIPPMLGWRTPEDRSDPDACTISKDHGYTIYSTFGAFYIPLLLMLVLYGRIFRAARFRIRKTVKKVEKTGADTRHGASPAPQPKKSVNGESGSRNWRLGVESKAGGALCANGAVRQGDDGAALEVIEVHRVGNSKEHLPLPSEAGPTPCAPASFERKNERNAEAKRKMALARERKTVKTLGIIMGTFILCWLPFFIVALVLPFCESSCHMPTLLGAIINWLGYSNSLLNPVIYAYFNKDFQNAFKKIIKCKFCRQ
T8 sequence (O43603 whole entry): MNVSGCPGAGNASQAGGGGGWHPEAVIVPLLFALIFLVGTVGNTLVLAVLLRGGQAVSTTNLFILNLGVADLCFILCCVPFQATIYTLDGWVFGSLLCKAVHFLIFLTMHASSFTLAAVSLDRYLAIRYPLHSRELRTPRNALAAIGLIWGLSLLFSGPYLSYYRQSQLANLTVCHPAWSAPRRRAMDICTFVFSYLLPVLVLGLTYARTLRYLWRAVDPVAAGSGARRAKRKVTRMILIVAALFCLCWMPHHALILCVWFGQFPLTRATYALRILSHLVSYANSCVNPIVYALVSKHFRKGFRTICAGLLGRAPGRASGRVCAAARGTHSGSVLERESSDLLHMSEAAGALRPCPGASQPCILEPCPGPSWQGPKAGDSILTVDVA
T6 sequence (P35372 whole entry): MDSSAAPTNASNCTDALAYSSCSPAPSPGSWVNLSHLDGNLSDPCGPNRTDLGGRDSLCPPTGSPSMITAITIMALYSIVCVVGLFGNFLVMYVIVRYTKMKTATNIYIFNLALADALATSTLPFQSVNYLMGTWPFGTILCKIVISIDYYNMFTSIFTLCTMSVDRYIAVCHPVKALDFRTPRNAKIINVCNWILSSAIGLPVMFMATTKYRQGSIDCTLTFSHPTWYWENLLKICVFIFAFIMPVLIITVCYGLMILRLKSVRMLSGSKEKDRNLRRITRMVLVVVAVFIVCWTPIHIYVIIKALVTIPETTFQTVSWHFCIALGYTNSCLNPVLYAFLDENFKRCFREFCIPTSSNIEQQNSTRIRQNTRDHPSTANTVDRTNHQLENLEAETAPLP
T11 sequence (P14416 1-414 isoform P14416-2): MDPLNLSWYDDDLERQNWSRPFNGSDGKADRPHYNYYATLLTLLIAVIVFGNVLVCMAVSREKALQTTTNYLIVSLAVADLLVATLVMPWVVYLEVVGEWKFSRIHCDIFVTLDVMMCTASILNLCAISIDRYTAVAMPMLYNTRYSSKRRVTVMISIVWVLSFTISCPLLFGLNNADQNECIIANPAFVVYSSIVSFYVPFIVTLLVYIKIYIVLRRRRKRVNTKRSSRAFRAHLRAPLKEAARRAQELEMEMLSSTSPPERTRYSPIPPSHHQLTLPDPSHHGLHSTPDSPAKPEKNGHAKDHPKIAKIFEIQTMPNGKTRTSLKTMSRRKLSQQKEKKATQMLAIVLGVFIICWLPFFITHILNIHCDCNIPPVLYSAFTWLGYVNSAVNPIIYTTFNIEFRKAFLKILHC

Work on `COCCN(C)C(=O)c1cc(C(=O)N(C)CCOC)cc(C(=O)N(C)CCOC)c1` [PTX-BD4-3, benzene-1,3,5-tricarboxylic acid tris-[(2-methoxy-ethyl)-methyl-amide]] yielded an inhibition at 10 µM (D1 (h); [1]) of 10.7%, an inhibition at 10 µM (D1 (h); [2]) of 1.3% and an inhibition at 10 µM (D1 (h); [3]) of 6%. The “% Inhibition of Control Specific Binding 1st” value (GABA (non-selective)) was 16.5%, the “% Inhibition of Control Specific Binding 2nd” value (GABA (non-selective)) was 19.1% and the “% Inhibition of Control Specific Binding Mean” value (GABA (non-selective)) was 17.8%. It also gave an inhibition at 10 µM (A2A (h); [1]) of 11.4%, an inhibition at 10 µM (A2A (h); [2]) of 30.1% and an inhibition at 10 µM (A2A (h); [3]) of 20.7%. It also gave an inhibition at 10 µM (H1 (h); [1]) of 5.8%, an inhibition at 10 µM (H1 (h); [2]) of 5.2% and an inhibition at 10 µM (H1 (h); [3]) of 5.5%. It also gave an inhibition at 10 µM (5-HT1A (h); [1]) of 19.3%, an inhibition at 10 µM (5-HT1A (h); [3]) of 5% and an inhibition at 10 µM (A1 (h); [1]) of 8.9%. For the same compound, the inhibition at 10 µM (A1 (h); [2]) was 5.6%, the inhibition at 10 µM (A1 (h); [3]) was 7.2% and the inhibition at 10 µM (μ (MOP) (h)) was 6.6%. It also gave an inhibition at 10 µM (5-HT2A (h); [1]) of 4.8%, an inhibition at 10 µM (5-HT2A (h); [3]) of 0% and an inhibition at 10 µM (GAL2 (h)) of 6.3%. For the same compound, the “% Inhibition of Control Specific Binding 1st” value (BZD (central)) was 2.9%, the inhibition at 10 µM (B2 (h); [1]) was 8.1% and the inhibition at 10 µM (B2 (h); [2]) was 0.3%. The inhibition at 10 µM (B2 (h); [3]) was 4.2%, the inhibition at 10 µM (EP4 (h); [1]) was 9.5% and the inhibition at 10 µM (EP4 (h); [2]) was 10.4%. The inhibition at 10 µM (EP4 (h); [3]) was 9.9% and the inhibition at 10 µM (D2S (h)) was 2.4%.
